In patent US20220313620A1, “COMPOSITION FOR PREVENTING AND TREATING TAUOPATHIES” (SERVICIO ANDALUZ DE SALUD, priority 2019, published 2022):

Columns and labels:
[1] = Plasma glucose levels after acute oral gavage; type: in vivo; conditions: oral 500 mg/kg, adult male Wistar rats, FIG. 3C
Description: Experimental procedures with animals were carried out in strict accordance with the recommendations in the European Communities directive 2010/63/EU and Spanish legislation (Real Decreto 53/2013, BOE 34/11370-11421, 2013) regulating the care and use of laboratory animals. The protocol was approved by the Ethics Committee for Animal Experiments of the University of Malaga. All studies involving animals were reported in accordance with the ARRIVE guidelines for reporting experiments involving animals (Kilkenny, C., Browne, W. J., Cuthill, I. C., Emerson, M. & Altman, D. G. Improving Bioscience Research Reporting: The ARRIVE Guidelines for Reporting Animal Research. PLoS Biol 8, e1000412, https://doi.org/10.1371/journal.pbio.1000412 (2010). All efforts were made to minimize animal suffering and to reduce the number of animals used. The experiments were performed on 4-to-5-week-old male Wistar rats (Crl:Wl; Charles River Laboratories, Barcelona, Spain). The animals were under a standard 12 h light-dark cycle in a room with temperature and humidity control. All the rats were provided with water and commercially available rat standard pellet diet (STD) (3.02 kcal/g with 30 kcal % protein, 55 kcal % carbohydrates and 15 kcal % fat) ad libitum. […]

[2] = test system: insulin; assay: Plasma insulin (ELISA) and HOMA insulin resistance index after acute oral gavage; type: in vivo; conditions: adult male Wistar rats
Description: The protocol was approved by the Ethics Committee for Animal Experiments of the University of Malaga.
D-Pinitol (3-0-methyl-D-chiro-inositol) was generously provided by EURONUTRA SL (https://www.euronutra.com/, Malaga, Spain), in the form of crystalline fine powder (lot: PPN-M0201). For acute treatments, D-Pinitol was dissolved in water to be administered by gavage (orally) at different concentrations (100 mg/Kg and 500 mg/Kg), drug was administered at a volume of 1 ml/kg.
After 18 hours of fasting, D-Pinitol dissolved in water was administered acutely by gavage (100 mg/kg in a first study, and 500 mg/kg in a subsequent study). After administration, the animals were sacrificed in groups at different times (being time 0 the administration of D-Pinitol). For the first study (100 mg/kg), groups of animals were sacrificed at times: 10, 20, 30, 60, 120, 240 and 360 minutes after administration; for the second study (500 mg/kg), animals were sacrificed at times: 60, 120 and 240 minutes after administration. As a control group, a group was administered only with water (by gavage).
Animals were anesthetized with sodium pentobarbital (50 mg/Kg, i.p.), blood, brain and liver samples were collected. Blood was centrifuged (2100 g for 8 min, 4° C.) and the plasma kept for further analysis. Liver and brain samples were flash-frozen in liquid N2, then stored at −80° C. until further analysis.
The plasma levels of insulin and ghrelin were determined with an enzyme-linked immunosorbent assay (ELISA) method using commercial kits: EMD Millipore Corporation (Billerica, Mass., USA) Cat. #EZRMI-13K and Cat. #EZRGRT-91K, respectively. Glucagon levels in plasma was determined with a Glucagon Enzyme Immunoassay (EIA) Kit: Cat. #RAB0202 Sigma-Aldrich (Saint Louis, Mo., USA). All serum samples were assayed in duplicate within one assay, and results were expressed in terms of the particular standard hormone.

In the case of COC1[C@@H](O)[C@@H](O)C(O)[C@H](O)[C@H]1O (stereo partly drawn) [DPIN, (1S,2S,4S,5R)-6-methoxycyclohexane-1,2,3,4,5-pentol], the “glucose levels in plasma” value [1] was “maintenance”, the “insulin release into the blood circulation” value ([2]; oral 100 mg/kg, FIG. 2B) was “decreased” and the “insulin resistance measured by the HOMA index” value ([2]; oral 100 mg/kg, FIG. 2C) was “reduction”. The “insulin release into the blood circulation” value ([2]; oral 500 mg/kg, FIG. 3B) was “decreased” and the “insulin resistance measured by the HOMA index” value ([2]; oral 500 mg/kg, FIG. 3D) was “reduction”.
